Measurements reported in ChEMBL document CHEMBL5352391, “New structural classes of antimalarials” (Eur J Med Chem, 2022).
Converted amounts (≈) assume the structure as drawn.

Key:
Plasmodium falciparum [1] = assay: Antiplasmodial activity against chloroquine sensitive Plasmodium falciparum 3D7 assessed as inhibition of parasite growth incubated for 48 hrs by Malstat reagent based spectrophotometric; format: functional, organism-based; conditions: 3D7, 48 h
Plasmodium falciparum [2] = assay: Antimalarial activity against Plasmodium falciparum 3D7 assessed as reduction of parasite growth at 25 uM incubated for 96 hrs by SYBR green I dye based fluorescence assay relative to control; format: functional; set-up: scale not given: the % may be the effect or the level left
Plasmodium falciparum [3] = assay: Antiplasmodial activity against chloroquine resistant Plasmodium falciparum K14 assessed as inhibition of parasite growth incubated for 42 hrs by [3H]-hypoxanthine incorporation based microbeta scintillation counting method; format: functional, organism-based
Plasmodium falciparum [4] = assay: Antimalarial activity against Plasmodium falciparum 3D7 assessed as inhibition of parasite growth by measuring minimum inhibitory concentration by microassay; format: functional
Plasmodium falciparum [5] = assay: Antimalarial activity against chloroquine resistant Plasmodium falciparum assessed as inhibition of parasite growth; format: functional, organism-based
Plasmodium falciparum [6] = assay: Antiplasmodial activity against chloroquine resistant Plasmodium falciparum K14 assessed as inhibition of parasite growth incubated for 48 hrs by [3H]-hypoxanthine incorporation based microbeta scintillation counting method; format: functional, organism-based
Plasmodium falciparum [7] = assay: Antiplasmodial activity against Plasmodium falciparum 3D7 assessed as inhibition of parasite growth incubated for 72 hrs by LDH assay based spectrofluorometric analysis; format: functional, organism-based; conditions: 3D7, 72 h
Plasmodium falciparum [8] = assay: Antiplasmodial activity against erythrocytic stage of Plasmodium falciparum 3D7 assessed as reduction of parasite growth incubated for 100 hrs by SYBR Green dye based fluorescence assay; format: functional, organism-based; conditions: 3D7, 100 h
Plasmodium falciparum [9] = assay: Antiplasmodial activity against erythrocytic stage of Plasmodium falciparum NF54 assessed as reduction of parasite growth incubated for 48 hrs by [3H]-hypoxanthine incorporation based beta-plate liquid scintillation counting method; format: functional, organism-based
Plasmodium falciparum [10] = assay: Antiplasmodial activity against erythrocytic stage of Plasmodium falciparum K1 assessed as reduction of parasite growth incubated for 48 hrs by [3H]-hypoxanthine incorporation based beta-plate liquid scintillation counting method; format: functional, organism-based
[11] = Cytotoxicity against human HepG2 cells assessed as reduction in cell viability incubated for 72 hrs by MTT assay; format: toxicity, cell-based
[12] = Selectivity index, ratio of CC50 for cytotoxicity against human HepG2 cells by MTT assay to EC50 for antiplasmodial activity against erythrocytic stage of Plasmodium falciparum 3D7 by SYBR Green dye based fluorescence assay; format: toxicity, cell-based; conditions: read-out: Ratio CC50/EC50
[13] = Selectivity index, ratio of CC50 for cytotoxicity against human HepG2 cells by MTT assay to EC50 for antiplasmodial activity against erythrocytic stage of Plasmodium falciparum NF54 by [3H]-hypoxanthine incorporation based liquid scintillation counting method; format: toxicity, cell-based; conditions: read-out: Ratio CC50/EC50
[14] = Selectivity index, ratio of CC50 for cytotoxicity against human HepG2 cells by MTT assay to EC50 for antiplasmodial activity against erythrocytic stage of Plasmodium falciparum K1 by [3H]-hypoxanthine incorporation based liquid scintillation counting method; format: toxicity, cell-based; conditions: read-out: Ratio CC50/EC50
Plasmodium falciparum [15] = assay: Antiplasmodial activity against chloroquine resistant Plasmodium falciparum RKL-2 assessed as inhibition of parasite growth incubated for 36 to 40 hrs by Giemsa staining based microscopic analysis; format: functional, organism-based
Plasmodium falciparum [16] = assay: Antimalarial activity against Plasmodium falciparum 3D7 assessed as reduction of parasite growth incubated for 96 hrs by SYBR green I dye based fluorescence assay; format: functional, organism-based; conditions: 3D7, 96 h
Plasmodium falciparum [17] = assay: Antiplasmodial activity against chloroquine resistant Plasmodium falciparum Dd2 assessed as inhibition of parasite growth incubated for 72 hrs by LDH assay based spectrofluorometric analysis; format: functional, organism-based; conditions: Dd2, 72 h
[18] = Retention time of the compound by HPLC-MS analysis; format: physicochemical
Plasmodium falciparum [19] = assay: Antiplasmodial activity against Plasmodium falciparum K1 infected in human erythrocyte assessed as inhibition of parasite growth incubated for 72 hrs by [3H]-hypoxanthine incorporation based liquid scintillation counting method; format: functional, organism-based
Plasmodium falciparum [20] = assay: Antiplasmodial activity against mixture of chloroquine resistant Plasmodium falciparum RKL 303-chloroquine sensitive Plasmodium falciparum 3D7 infected in human erythrocyte assessed as inhibition of parasite growth incubated for 48 hrs by Giemsa staining based microscopic analysis; format: functional, organism-based

Q: Which IC50 (Plasmodium falciparum [1]) does the source give for `CC(=O)Nc1cc(-c2ccc(F)cc2)cc2c(C(=O)C(F)(F)F)c(-c3ccc(F)cc3)[nH]c12` here?
A: 2.52 µM

Q: Which Activity (Plasmodium falciparum [2]) does the source give for `COC(=O)[C@H](Cc1ccc(O)c(-c2ccc(Cl)cc2)c1)NC(=O)C(=O)c1c[nH]c2ccccc12` here?
A: 60%

Q: With `Oc1c(/C=N/c2ccccc2/N=C/c2cccc(CN3CCOCC3)c2O)cccc1CN1CCNCC1` as the compound, how does the IC50 (Plasmodium falciparum [3]) read?
A: 2.28 µM

Q: With `COC(=O)[C@H](Cc1ccc(O)c(-c2ccccc2)c1)NC(=O)C(=O)c1c[nH]c2ccccc12` as the compound, how does the Activity (Plasmodium falciparum [2]) read?
A: 60%

Q: With `COC(=O)[C@H](Cc1ccc(O)c(-c2ccsc2)c1)NC(=O)C(=O)c1c[nH]c2ccccc12` as the compound, how does the Activity (Plasmodium falciparum [2]) read?
A: 60%

Q: With `Cc1ccc(C2=C/C(=C/c3cc4cc(C)ccc4nc3Cl)C(=O)O2)c(C)c1` as the compound, how does the MIC (Plasmodium falciparum [4]) read?
A: 10 µg/mL (≈ 26.6 µM)

Q: With `Nc1cc(Cl)c(S(N)(=O)=O)cc1-c1nnc(S)n1-c1ccccc1Cl` as the compound, how does the IC50 (Plasmodium falciparum [5]) read?
A: 0.025 µg/mL (≈ 0.0601 µM)

Q: With `COC(=O)[C@H](Cc1ccc(O)c(-c2cccc(O)c2)c1)NC(=O)C(=O)c1c[nH]c2ccccc12` as the compound, how does the Activity (Plasmodium falciparum [2]) read?
A: 60%

Q: Which Activity (Plasmodium falciparum [2]) does the source give for `COC(=O)[C@H](Cc1ccc(O)c(-c2ccc(C(C)=O)cc2)c1)NC(=O)C(=O)c1c[nH]c2ccccc12` here?
A: 60%

Q: For `O=C(Nc1ccc([C@@H]2[C@H](Oc3ccc(Cl)cc3Cl)C(=O)N2c2ccc(Cl)cc2)cc1)N1CCOCC1`, which IC50 (Plasmodium falciparum [6]) is on record?
A: 26 µM

Q: For `C/C1=C\[C@H](C)CCC(=O)/C(C)=C/[C@H](C)C[C@@H](C)CC[C@@H]([C@@H](C)C(=O)O)OC(=O)[C@@H](C)C1`, which IC50 (Plasmodium falciparum [7]) is on record?
A: 9.81 µM

Q: For `CC1(C)C2CC=C(CC(=O)Nc3ccnc4cc(Cl)ccc34)[C@@H]1C2`, which EC50 (Plasmodium falciparum [8]) is on record?
A: 17.1 µM

Q: And the EC50 (Plasmodium falciparum [9])?
A: 21.4 µM

Q: And the EC50 (Plasmodium falciparum [10])?
A: 7.84 µM

Q: And the CC50 at 72 h [11]?
A: 14.3 µM

Q: What about the selectivity ratio [12] of the same compound?
A: 0.8

Q: And the selectivity ratio [13]?
A: 0.7

Q: What about the selectivity ratio [14] of the same compound?
A: 1.8

Q: Which IC50 (Plasmodium falciparum [15]) does the source give for `CCN(Cc1cc(C2(C)OOC(c3ccccn3)OO2)ccc1O)c1ccccc1` (stereo unspecified) here?
A: 5.3 µg/mL (≈ 13 µM)

Q: For `CC1(C)C2CC=C(CC(=O)Nc3ccnc4ccccc34)[C@@H]1C2`, which EC50 (Plasmodium falciparum [8]) is on record?
A: 26.4 µM

Q: And the EC50 (Plasmodium falciparum [9])?
A: 23.4 µM

Q: What about the EC50 (Plasmodium falciparum [10]) of the same compound?
A: 13.9 µM

Q: And the CC50 at 72 h [11]?
A: 3.98 µM

Q: And the selectivity ratio [12]?
A: 0.2

Q: What about the selectivity ratio [13] of the same compound?
A: 0.2

Q: What about the selectivity ratio [14] of the same compound?
A: 0.3

Q: Which Activity (Plasmodium falciparum [2]) does the source give for `COC(=O)[C@H](Cc1ccc(O)c(C(=O)OCc2ccc(Nc3ccccc3)cc2)c1)NC(=O)C(=O)c1c[nH]c2ccccc12` here?
A: 60%

Q: For `Oc1c(/C=N/c2ccc(Oc3ccc(/N=C/c4cccc(CN5CCOCC5)c4O)cc3)cc2)cccc1CN1CCOCC1`, which IC50 (Plasmodium falciparum [3]) is on record?
A: 2.28 µM

Q: For `COC(=O)[C@H](Cc1ccc(O)c(-c2ccc(Br)cc2)c1)NC(=O)C(=O)c1c[nH]c2ccccc12`, which Activity (Plasmodium falciparum [2]) is on record?
A: 60%

Q: What about the EC50 (Plasmodium falciparum [16]) of the same compound?
A: 3.7 µM

Q: With `CCN(Cc1cc(C2(C)OOC(c3ccco3)OO2)ccc1O)c1ccccc1` (stereo unspecified) as the compound, how does the IC50 (Plasmodium falciparum [15]) read?
A: 5.3 µg/mL (≈ 13.3 µM)

Q: Which IC50 (Plasmodium falciparum [1]) does the source give for `CC(=O)Nc1cc(-c2ccc(F)cc2)cc2cc(-c3ccc(F)cc3)[nH]c12` here?
A: 1.43 µM

Q: For `C/C1=C\[C@H](C)CC[C@@H](O)/C(C)=C/[C@H](C)C[C@@H](C)CC[C@@H]([C@@H](C)C(=O)O)OC(=O)[C@@H](C)C1`, which IC50 (Plasmodium falciparum [7]) is on record?
A: 0.013 µM

Q: And the IC50 (Plasmodium falciparum [17])?
A: 0.032 µM

Q: Which IC50 (Plasmodium falciparum [1]) does the source give for `COc1ccc(-c2[nH]c3c(NC(C)=O)cc(/C=C/c4ccc(F)cc4)cc3c2C(=O)C(F)(F)F)cc1` here?
A: 3.39 µM

Q: For `COc1ccc2nc(Cl)c(/C=C3/C=C(c4ccc(C)cc4C)OC3=O)cc2c1`, which MIC (Plasmodium falciparum [4]) is on record?
A: 10 µg/mL (≈ 25.5 µM)

Q: With `C/C1=C\[C@H](C)C(=O)C[C@@H](O)/C(C)=C/[C@H](C)C[C@@H](C)CC[C@@H]([C@@H](C)C(=O)O)OC(=O)[C@@H](C)C1` as the compound, how does the IC50 (Plasmodium falciparum [7]) read?
A: 0.123 µM

Q: Which results are given for `CC1(C)C2CC=C(CC(=O)Nc3cccc4cccnc34)[C@@H]1C2`?
A: EC50 (Plasmodium falciparum [8]): 2.19 µM; EC50 (Plasmodium falciparum [9]): > 50 µM; EC50 (Plasmodium falciparum [10]): > 50 µM; CC50 at 72 h [11]: > 100 µM; selectivity ratio [12]: > 62.3

Q: What does the source list for `C[C@H](C[C@H](O)[C@@H](O)C(C)(C)O)C1=C2C[C@H](O)[C@H]3[C@@]4(C)CCC(=O)C(C)(C)[C@@H]4CC[C@]3(C)[C@@]2(C)CC1` [ALISOL A]?
A: Retention_time [18]: 23 min; IC50 (Plasmodium falciparum [19]): 13.8 µM

Q: Which IC50 (Plasmodium falciparum [20]) does the source give for `C=CC(C)(C)c1cc(/C=C/C(=O)c2ccc(O)cc2)c(OC)cc1O` [LICOAGROCHACONE A] here?
A: 1.43 µg/mL (≈ 4.23 µM)

Q: With `C=C[C@H]1CN2CC[C@H]1C[C@H]2[C@H](O)c1ccnc2ccc(OC)cc12` [QUININE] as the compound, how does the IC50 (Plasmodium falciparum [5]) read?
A: 0.026 µg/mL (≈ 0.0801 µM)
